Experimental data as given in patent US20200338156A1, “C[…] (CYCLO-HIS PRO) FOR PREVENTING, IMPROVING OR TREATING OF BONE LOSS RELATED DISEASE” (NovMetaPharma Co., Ltd., priority 2017, published 2020).
“Also recorded” adds a separate entry of the source.

Key:
MC3T3-E1 cells = assay: Osteogenic differentiation of MC3T3-E1 osteoblasts, alkaline phosphatase (ALP) activity; type: cell-based
Method: MC3T3-E1 cells were incubated in MEMα, an ascorbic acid-free medium containing 10% FBS and 1% penicillin/streptomycin, in a 5% CO2 incubator at 37° C. To induce osteogenic differentiation, 10 mM β-glycerophosphate and […] of ascorbic acid was further added to the basal medium composition.
500 μl of 1×10^5 MC3T3-E1 cells were seeded into a 24-well plate and cultured for 24 hours until they reached 100% confluency. […] At this time, in the undifferentiated group, which is a negative control for differentiation, a basal medium was used instead of the differentiation medium. In the positive control treated with hPTH1-34, the medium was replaced with a differentiation medium 6 hours after the treatment. While the medium was replaced every 48 hours, each concentration of CHP and hPTH1-34 was treated for a total of 14 days.
On day 14 of differentiation, the medium was removed, followed by washing once with PBS and fixing in 4% paraformaldehyde (PFA) at room temperature for 5 minutes. 500 μl of a 1-STEP™ NBCT/BCIP solution was added to allow a reaction to occur at room temperature for 1 hour. The reaction product was washed with distilled water, and then dried at room temperature, and the degree of coloring of the cells was observed using a microscope. Subsequently, DMSO was added to each well, followed by shaking, and then absorbance at 525 nm was measured.

[1] = test system: ovariectomized animal model; assay: Osteoporosis alleviation effect in ovariectomized animal model, micro CT of femur; type: in vivo, SD female mice
Method: To determine the effect of alleviating osteoporosis in an ovariectomized animal model according to administration of CHP, a zinc salt, or a mixture thereof, 20-week-old SD female mice (SLC/Central Experimental Animal Co. Ltd., Seoul, Korea) were purchased and raised under certain conditions (temperature: 22±2° C., relative humidity: 55±10%, light/dark cycle: 12 hours). 7 mice/group were allowed to freely drink water and eat food in a cage, subjected to an adaptation period of 1 week before the experiment, and used in the experiment.
After 6 weeks of the administration of CHP, a zinc salt, or a mixture thereof, the effect of alleviating osteoporosis in an ovariectomized animal model was analyzed using Micro CT. The bone mineral density of ovariectomized animals was measured by bone CT scanning of the 3 mm range at the front side of a 2 mm femoral growth plate using micro-CT (QuantumFX, Perkin Elmer, Massachusetts, USA). In addition, a bone volume fraction (BV/TV, %) was measured. The measurement results of the bone mineral density of the femur are illustrated in FIG. 1, and the bone volume fraction is illustrated in FIG. 2.

O=C1N[C@@H](Cc2cnc[nH]2)C(=O)N2CCC[C@@H]12 [CHP, cyclo-hispro]
osteogenic differentiation, degree of coloring (ALP staining, FIG. 3) (MC3T3-E1 cells; MC3T3-E1, 0.5, 1 or 2 mM CHP, day 14 of differentiation, compared to negative control): remarkably increased degree of coloring compared to the negative control; also recorded: as the concentration of CHP treated was increased, osteogenic differentiation and bone modeling were promoted
ALP activity (absorbance at 525 nm, FIG. 4) (MC3T3-E1 cells; MC3T3-E1, CHP 2 mM, day 14, compared to positive control hPTH1-34 10 nM): level similar to that of the positive control; also recorded: same or similar to that of a positive control
bone mineral density of a femur ([1]; CHP alone administered to ovariectomized animal model, dose not stated (FIG. 1)): significantly increased
bone volume fraction of a femur ([1]; CHP alone administered to ovariectomized animal model, dose not stated (FIG. 2)): significantly increased
bone volume fraction (BV/TV) ([1]; group administered 1 mg/L of CHP in drinking water, 6 weeks, micro-CT): restored to a level similar to that of the positive control (risedronate)
bone mineral density of the femur ([1]; group administered 1 mg/L of CHP in drinking water, 6 weeks, micro-CT, compared to the ovariectomized group): significant increase
effect on bone mineral density and bone volume fraction versus zinc salt-administered group and combined (zinc salt + CHP) administration group ([1]; ovariectomized animal model, CHP alone): significantly stronger
